The text below walks through data of patent publication US7902148B2, “Use of an echinocandin antifungal agent in combination with a glycopeptide antibacterial agent” (Theravance, Inc., priority 2003, dated 2011).

The subject of experiment [1] is various strains of fungi. The experiment in a line: Assay for determining MIC and FICI, summary statements over strains. It counts as cell-based. The source says: (§1) The following assay was used to determine the minimum inhibitory concentration (MIC) and fractional inhibitory concentration index (FICI) for combinations of antifungal agents and antibacterial agents. This assay and methods for calculating FICI are well known in the art. See, for example, Eliopoulos, E. G. and R. Moellering, Jr. “Antimicrobial Combinations” in Antibiotics in Laboratory Medicine, edited by V. Lorian, 4th Ed., Williams & Wilkins, Baltimore, Md., pp. 330-396 (1996); Shalit et al., Antimicrobial Agents and Chemotherapy 47(4):1416-1418 (2003); or Afeltra et al., Antimicrobial Agents and Chemotherapy 46(10):3323-3326 (2002).
FICI values are typically evaluated using the following criteria:
Using a checkerboard method, a 2-fold dilution 100× final concentration master plate was prepared using a 96-well U-shape microtiter plate and an appropriate solvent. In the “checkerboard” method, a microtiter plate is divided into “columns” in which each well in the column contains the same amount of an antifungal agent (Compound A) being diluted along the x-axis, and “rows” in which each well in the row contains the same amount of a glycopeptide antibacterial agent (Compound B) being diluted on the γ-axis. […]
The calculated value for the FICI of the combined test compounds was compared to the following standards in certain embodiments: […]

Experiment [2] has as its system G. candidum ATCC 62231. Kind of experiment: Checkerboard MIC assay for FICI. Format: cell-based, Geotricium candidum. As to conditions: combination with caspofungin.
Source text: as §1
(§2) Using a checkerboard method, a 2-fold dilution 100× final concentration master plate was prepared using a 96-well U-shape microtiter plate and an appropriate solvent. In the “checkerboard” method, a microtiter plate is divided into “columns” in which each well in the column contains the same amount of an antifungal agent (Compound A) being diluted along the x-axis, and “rows” in which each well in the row contains the same amount of a glycopeptide antibacterial agent (Compound B) being diluted on the γ-axis. Also included is a row (or column) for Compound A or B alone. The dilutions used in the checkerboard are exponential (by powers of two). […]

Experiment [3] concerns A. flavus ATCC 64025. The experiment in a line: Checkerboard MIC assay for FICI. It counts as cell-based, Aspergillus flavus. The following applies: combination with caspofungin.
Source text: as §1, §2

In experiment [4] the test system is C. glabrata ATCC 200918. The experiment in a line: Checkerboard MIC assay for FICI. It counts as cell-based, Candida glabrata.
Source text: as §1
(§3) Using a checkerboard method, a 2-fold dilution 100× final concentration master plate was prepared using a 96-well U-shape microtiter plate and an appropriate solvent. In the “checkerboard” method, a microtiter plate is divided into “columns” in which each well in the column contains the same amount of an antifungal agent (Compound A) being diluted along the x-axis, and “rows” in which each well in the row contains the same amount of a glycopeptide antibacterial agent (Compound B) being diluted on the γ-axis. Also included is a row (or column) for Compound A or B alone. The dilutions used in the checkerboard are exponential (by powers of two). The result is that each well in the microtiter plate contains a unique concentration of the two compounds being tested.
(§4) A matrix 2× final concentration was performed by transferring 30 μL of 100× Compound A and Compound B into a 1,440 μL RPMI in deep wells (one deep well per drug combination). After mixing, 100 μL of 2× drug combinations were distributed into 96-well microtiter plates. Compound A was diluted from Column 1 starting at 1,600 μg/mL to Column 11 (1.6 μg/mL). Wells in Column 1 contained a final concentration (after inoculum was added) of 16 μg/mL of Compound A; wells in Column 2 contained a final concentration of 8 μg/mL of Compound A; wells in Column 3 contained a final concentration of 4 μg/mL of Compound A; etc. Compound A was not added to Column 12, so Column 12 contained only Compound B.
(§5) Compound B was diluted from row A starting at 6,400 μg/mL down to row G (100 μg/mL). Wells in Row A contained a final concentration of 64 μg/mL of Compound B; Row B contained a final concentration of 32 μg/mL of Compound B; Row C contained a final concentration of 16 μg/mL of Compound B; etc. Compound B was not added to Row H, so Row H only contained Compound A.
(§6) In most cases, MIC of the glycopeptide antibacterial compound alone was >64 μg/mL. In order to get an accurate measurement, a standard MIC assay using NCCLS protocols was performed with an extended concentration range of from 256 μg/mL to 0.25 μg/mL. […]

For experiment [5], the system named is M. circinelloides ATCC 26759. Kind of experiment: Checkerboard MIC assay for FICI. Format: cell-based, Mucor circinelloides. The following applies: combination with caspofungin.
Source text: as §1, §2

Experiment [6] deals with C. tropicalis ATCC 750. The experiment in a line: Checkerboard MIC assay for FICI. It counts as cell-based, Candida tropicalis.
Source text: as §1, §3, §4, §5, §6

The subject of experiment [7] is C. neoformans ATCC 56991. The experiment in a line: Checkerboard MIC assay for FICI. Format: cell-based, Cryptococcus neoformans.
Source text: as §1, §2

The test system of experiment [8] is S. prolificans ATCC 200543. The experiment in a line: Checkerboard MIC assay for FICI. Format: cell-based. As to conditions: combination with caspofungin.
Source text: as §1, §2

Experiment [9] has as its system A. terreus ATCC 46941. The experiment in a line: Checkerboard MIC assay for FICI. Format: cell-based. As to conditions: combination with caspofungin.
Source text: as §1, §2

Experiment [10] concerns A. fumigatus ATCC 14110. The experiment in a line: Checkerboard MIC assay for FICI. It counts as cell-based, Aspergillus fumigatus. The following applies: combination with caspofungin.
Source text: as §1, §2

Experiment [11] has as its system C. parapsilosis ATCC 22019. The experiment in a line: Checkerboard MIC assay for FICI. Format: cell-based, Candida parapsilosis.
Source text: as §1, §3, §4, §5, §6

Experiment [12] relates to F. moniliforme ATCC 38159. The experiment in a line: Checkerboard MIC assay for FICI. It counts as cell-based, Fusarium moniliforme. The following applies: combination with caspofungin.
Source text: as §1, §2

Experiment [13] relates to C. albicans ATCC 24433. Kind of experiment: Checkerboard MIC assay for FICI. It counts as cell-based, Candida albicans.
Source text: as §1, §3, §4, §5, §6

Experiment [14] relates to R. miscrosporus ATCC 14050. Kind of experiment: Checkerboard MIC assay for FICI. It counts as cell-based, Rhizopus microsporus. The following applies: combination with caspofungin.
Source text: as §1, §2

Experiment [15] deals with C. krusei ATCC 32672. The experiment in a line: Checkerboard MIC assay for FICI. Format: cell-based, Candida krusei.
Source text: as §1, §3, §4, §5, §6

Experiment [16] relates to P. boydii ATCC 38283. The experiment in a line: Checkerboard MIC assay for FICI. As to conditions: combination with caspofungin. It counts as cell-based, Pseudallescheria boydii.
Source text: as §1, §2

`CCCCCCCCCCNCCN[C@@]1(C)C[C@H](O[C@H]2[C@H](Oc3c4cc5cc3Oc3ccc(cc3Cl)[C@@H](O)[C@@H](NC(=O)[C@@H](CC(C)C)NC)C(=O)N[C@@H](CC(N)=O)C(=O)N[C@H]5C(=O)N[C@H]3C(=O)N[C@H](C(=O)N[C@H](C(=O)O)c5cc(O)c(CNCP(=O)(O)O)c(O)c5-c5cc3ccc5O)[C@H](O)c3ccc(c(Cl)c3)O4)O[C@H](CO)[C@@H](O)[C@@H]2O)O[C@@H](C)[C@H]1O` [Compound 1, telavancin]: the “effect of the combination with caspofungin” value in experiment [1] (all yeast strains tested, except C. neoformans, FICI ≦ 0.5 = synergistic) is reported as “synergistic”. The FICI in [2] was 0.31; in experiment [3], 0.16; in experiment [4] (combination with caspofungin), 0.28; in experiment [5], 2; in experiment [6] (combination with caspofungin), 0.26; in experiment [7] (combination with caspofungin, C. neoformans ATCC 56991, checkerboard), 0.75. For the same molecule, the FICI in experiment [8] is on record as 1.25; in experiment [9], 0.31; in experiment [10] it was 0.28; in [11] (combination with caspofungin), 0.38; in [12], 2; in experiment [13] (combination with caspofungin), 0.27. Further, the FICI in experiment [14] stood at 2; in [15] (combination with caspofungin), 0.31; in experiment [16], 0.31.

Regarding `OC(Cn1cncn1)(Cn1cncn1)c1ccc(F)cc1F` [Fluconazole], the FICI in experiment [4] (combination with Compound 1), in [6] (combination with Compound 1), in experiment [11] (combination with Compound 1), in experiment [13] (combination with Compound 1) and in experiment [15] (combination with Compound 1) was 2.00 in each case.

Consider `Clc1ccc(COC(Cn2ccnc2)c2ccc(Cl)cc2Cl)c(Cl)c1` (stereo not drawn) [Miconazole], for which the FICI in [6] (combination with Compound 1), in experiment [11] (combination with Compound 1) and in [13] (combination with Compound 1) was 2.00 throughout.

Turning to `CN[C@H](CC(C)C)C(=O)N[C@H]1C(=O)N[C@@H](CC(N)=O)C(=O)N[C@H]2C(=O)N[C@H]3C(=O)N[C@H](C(=O)N[C@H](C(=O)O)c4cc(O)cc(O)c4-c4cc3ccc4O)[C@H](O)c3ccc(c(Cl)c3)Oc3cc2cc(c3O[C@@H]2O[C@H](CO)[C@@H](O)[C@H](O)[C@H]2O[C@H]2C[C@](C)(N)[C@H](O)[C@H](C)O2)Oc2ccc(cc2Cl)[C@H]1O` [Vancomycin], the “effect of the combination with caspofungin” value in experiment [1] (strains of Table 1, FICI criteria of b187) is “not synergistic or additive”. Moreover, the FICI in experiment [4] (combination with caspofungin), in experiment [6] (combination with caspofungin), in experiment [11] (combination with caspofungin), in experiment [13] (combination with caspofungin) and in [15] (combination with caspofungin) was 2.00 throughout.

`C[C@@H](c1ncncc1F)[C@](O)(Cn1cncn1)c1ccc(F)cc1F` [Voriconazole, voriconazole]: the FICI in [4] (combination with Compound 1) and in experiment [15] (combination with Compound 1) was 1.13 each time.

As to `CC[C@H](C)C[C@H](C)CCCCCCCCC(=O)N[C@H]1C[C@@H](O)[C@@H](NCCN)NC(=O)[C@@H]2[C@@H](O)CCN2C(=O)[C@H]([C@H](O)CCN)NC(=O)[C@H]([C@H](O)[C@@H](O)c2ccc(O)cc2)NC(=O)[C@@H]2C[C@@H](O)CN2C(=O)[C@H]([C@@H](C)O)NC1=O` [caspofungin], in experiment [7] (caspofungin alone), the “activity of caspofungin against C. neoformans” value is on record as “no activity”.
